Consider three compounds from article PMC9500072, “Topical application of an irreversible small molecule inhibitor of lysyl oxidases ameliorates skin scarring and fibrosis” (Nature Communications, 2022).

Holding throughout (assay type): biochemical
One test concerns the target T1, recombinant human LOXL3 (Homo sapiens, UniProt P58215).
T1 construct: purchased R&D Systems
T1 sequence (P58215 26-753): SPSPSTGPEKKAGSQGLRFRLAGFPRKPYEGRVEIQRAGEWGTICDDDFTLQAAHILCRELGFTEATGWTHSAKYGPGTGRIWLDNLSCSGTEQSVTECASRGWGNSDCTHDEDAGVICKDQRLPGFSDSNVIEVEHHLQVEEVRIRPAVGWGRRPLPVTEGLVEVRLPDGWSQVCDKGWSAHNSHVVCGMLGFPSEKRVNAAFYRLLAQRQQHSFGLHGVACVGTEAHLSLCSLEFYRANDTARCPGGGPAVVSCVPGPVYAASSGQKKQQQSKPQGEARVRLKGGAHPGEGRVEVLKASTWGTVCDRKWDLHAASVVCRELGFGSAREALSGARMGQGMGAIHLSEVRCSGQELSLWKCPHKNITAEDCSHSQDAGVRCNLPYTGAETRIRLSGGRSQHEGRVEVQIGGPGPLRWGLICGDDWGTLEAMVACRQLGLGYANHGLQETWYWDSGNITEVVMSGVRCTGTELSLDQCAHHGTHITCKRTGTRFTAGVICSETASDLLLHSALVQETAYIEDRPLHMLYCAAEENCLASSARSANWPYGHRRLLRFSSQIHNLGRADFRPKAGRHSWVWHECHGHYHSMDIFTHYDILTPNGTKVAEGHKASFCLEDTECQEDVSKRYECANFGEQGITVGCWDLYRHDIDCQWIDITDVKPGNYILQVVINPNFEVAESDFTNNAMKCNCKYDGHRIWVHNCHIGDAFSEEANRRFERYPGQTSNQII
Kind of test: Amplex Red oxidation assay, LOXL3 inhibition. As for the experimental part:
The measurement of the enzymatic activity of all lysyl oxidase family members was based on the detection of hydrogen peroxide with an Amplex-Red oxidation assay, as previously described; miniaturized in 384 well formats, with the appropriate combination of substrate and assay buffer for each individual enzyme. After a 30 min pre-incubation of the enzyme at 37 °C with the test compound (or with different incubation times for the time-dependency assay), one volume of reaction mixture containing 120 μM Amplex Red (AR) (Life Technologies), 1.5 U/mL horseradish peroxidase (HRP) (Sigma-Aldrich) and the specific substrate was added to each sample. The relative fluorescence units (RFU) were then measured every 2.5 min for 30 min at 37 °C, excitation 565 nm and emission 590, on a BMG Clariostar Microplate Reader. All the substrates were used at concentrations corresponding to their Km towards the corresponding enzyme, or with a range of different concentrations for the substrate competition experiments.
Lysyl oxidases assay buffer contained 1.2 M urea, 50 mM sodium borate buffer, pH 8.2 and 100 µM β-aminoproprionitrile (BAPN, Sigma-Aldrich) was used for low control.
Recombinant human LOXL1 was expressed and purified from cDNA (GeneArt) and 10 mM putrescine was used as substrate. Recombinant human and mouse LOXL2 (R&D Systems) were challenged with 5 mM putrescine (Sigma-Aldrich) as the substrate. Rat and dog recombinant LOXL2 were amplified and purified in house from HEK-293 clones kindly provided by Dr. Fernando Rodríguez Pascual, Madrid University, and used in the same conditions as for the human form. 2 mM putrescine was used as the substrate for recombinant human LOXL3 (R&D Systems) and LOXL4 (Dr. Fernando Rodríguez Pascual, university of Madrid, Spain) assays.

Another test addresses T2, Human Recombinant SSAO (Homo sapiens, UniProt Q16853).
T2 sequence (Q16853 1-763): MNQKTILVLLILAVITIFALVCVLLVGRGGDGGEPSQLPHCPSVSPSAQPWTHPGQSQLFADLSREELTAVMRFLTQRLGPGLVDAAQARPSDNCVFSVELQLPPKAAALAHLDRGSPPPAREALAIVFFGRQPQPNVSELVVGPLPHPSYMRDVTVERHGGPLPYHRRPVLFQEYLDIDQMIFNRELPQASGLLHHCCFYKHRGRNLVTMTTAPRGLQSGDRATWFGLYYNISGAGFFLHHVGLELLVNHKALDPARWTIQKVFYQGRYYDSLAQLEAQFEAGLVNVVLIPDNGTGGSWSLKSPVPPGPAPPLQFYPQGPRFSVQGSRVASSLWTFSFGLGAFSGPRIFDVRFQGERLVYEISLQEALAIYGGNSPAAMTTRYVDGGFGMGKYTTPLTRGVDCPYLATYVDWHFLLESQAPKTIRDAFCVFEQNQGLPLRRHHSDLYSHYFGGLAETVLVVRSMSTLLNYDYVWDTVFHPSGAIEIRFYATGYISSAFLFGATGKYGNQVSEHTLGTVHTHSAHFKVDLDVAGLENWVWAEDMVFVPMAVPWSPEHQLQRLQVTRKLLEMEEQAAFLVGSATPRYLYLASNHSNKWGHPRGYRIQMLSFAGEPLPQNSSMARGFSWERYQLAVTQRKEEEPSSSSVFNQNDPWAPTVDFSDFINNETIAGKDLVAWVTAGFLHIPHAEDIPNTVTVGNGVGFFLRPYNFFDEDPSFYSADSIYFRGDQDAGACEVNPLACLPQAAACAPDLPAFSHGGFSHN
Kind of test: Amine oxidase inhibition profile, SSAO. The source says:
(§1) Supplem entary Materi als:
(§2) Supplementary Table S1: Amine oxidase inhibition profile of PXS -4787, PXS-6302 and
(§3) Supplementary Table S2: Perm eability profile of PXS -6302.

A further test concerns the target T3, Human Recombinant MAO-A (Homo sapiens, UniProt P21397).
T3 sequence (P21397 1-527): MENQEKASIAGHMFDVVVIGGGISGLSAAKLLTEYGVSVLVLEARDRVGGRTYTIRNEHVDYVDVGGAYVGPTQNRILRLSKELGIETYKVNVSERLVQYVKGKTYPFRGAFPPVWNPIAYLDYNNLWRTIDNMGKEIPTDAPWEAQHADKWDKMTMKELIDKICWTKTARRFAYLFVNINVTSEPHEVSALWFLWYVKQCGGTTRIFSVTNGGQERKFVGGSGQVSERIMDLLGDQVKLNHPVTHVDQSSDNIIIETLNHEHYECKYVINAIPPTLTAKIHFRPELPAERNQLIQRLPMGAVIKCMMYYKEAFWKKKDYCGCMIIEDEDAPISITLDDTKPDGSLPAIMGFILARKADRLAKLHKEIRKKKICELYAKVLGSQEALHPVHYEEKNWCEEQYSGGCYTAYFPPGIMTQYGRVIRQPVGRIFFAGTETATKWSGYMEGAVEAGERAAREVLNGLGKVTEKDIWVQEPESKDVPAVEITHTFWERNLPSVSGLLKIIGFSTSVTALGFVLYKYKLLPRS
Kind of test: Amine oxidase inhibition profile, MAO-A.
Description: as §1, §2, §3

Where [1] appears, read: 30 min pre-incubation, read-out: rh LOXL3 IC50.
The mark [2] stands for this setting: read-out: Human Recombinant LOXL3 pIC50±SD (converted).
Where [3] appears, read: read-out: Recombinant SSAO IC50.
Where [4] appears, read: read-out: Recombinant MAO-A IC50.

The structures appear in SMILES notation. Like-named read-outs stand apart in the source and are kept apart here.

One may read the inhibition as the drop in the measured response relative to a control, in per cent. As to `NC/C=C(\F)CS(=O)(=O)c1ccccc1` [PXS-4787], the IC50 on recombinant human LOXL3 (setting [1]) is 1420 nM; on recombinant human LOXL3 (setting [2]), 1260 nM; on Human Recombinant SSAO (setting [3]), > 100000 nM; at Human Recombinant MAO-A (setting [4]), > 30000 nM. Moreover, the inhibition at 30 µM at recombinant human LOXL3 (log conc -4.5229, read-out: Fig 2A inhibition (mean)) turned out to be 99.7%. For the same compound, on recombinant human LOXL3 (log conc -5, read-out: Fig 2A inhibition (mean)), the inhibition at 10 µM was 94.8%. The inhibition at 3.333 µM at recombinant human LOXL3 (log conc -5.4771, read-out: Fig 2A inhibition (mean)) came to 75.7%. For the same compound, the inhibition at 1.111 µM at recombinant human LOXL3 (log conc -5.9542, read-out: Fig 2A inhibition (mean)) was determined as 41.8%. In addition, at recombinant human LOXL3 (log conc -6.4313, read-out: Fig 2A inhibition (mean)), the inhibition at 0.3704 µM was determined as 18.9%. On recombinant human LOXL3 (log conc -6.9083, read-out: Fig 2A inhibition (mean)), the inhibition at 0.1235 µM came to 6.04%. The inhibition at 0.0412 µM on recombinant human LOXL3 (log conc -7.3851, read-out: Fig 2A inhibition (mean)) is -0.564%. For the same compound, the inhibition at 0.0137 µM at recombinant human LOXL3 (log conc -7.8633, read-out: Fig 2A inhibition (mean)) came out at 1.57%. Also, the inhibition at 0.0046 µM on recombinant human LOXL3 (log conc -8.3372, read-out: Fig 2A inhibition (mean)) is -2.27%. For the same compound, at recombinant human LOXL3 (log conc -8.8239, read-out: Fig 2A inhibition (mean)), the inhibition at […] is -2.78%. The inhibition at 0.0005 µM at recombinant human LOXL3 (log conc -9.301, read-out: Fig 2A inhibition (mean)) was -0.598%.

In the case of `N#CCCN` [BAPN, β-aminoproprionitrile, reference compound], on recombinant human LOXL3, the “Human Recombinant LOXL3 pIC50±SD” value was 6.3 ± 0.1. Further, the IC50 on recombinant human LOXL3 (setting [1]) was 510 nM; on Human Recombinant SSAO (setting [3]) it was > 100000 nM; on Human Recombinant MAO-A (setting [4]), > 30000 nM. The “Recombinant SSAO pIC50” value at Human Recombinant SSAO is on record as < 4. The “Recombinant MAO-A pIC50” value at Human Recombinant MAO-A was < 4.5.

`NC/C=C(\F)C(F)(F)S(=O)(=O)c1ccccc1` [PXS-6302]: the IC50 at recombinant human LOXL3 (setting [1]) is 1540 nM; on recombinant human LOXL3 (setting [2]), 1580 nM; on Human Recombinant SSAO, > 30000 nM; at Human Recombinant MAO-A, > 30000 nM.
